In ChEMBL document CHEMBL1614632, “Trend analysis of a database of intravenous pharmacokinetic parameters in humans for 670 drug compounds” (Drug Metab Dispos, 2008):
Square brackets hold non-standard residues; d marks the D form. Peptide text beside a SMILES is read from it. dPhe(4-Cl) = N[C@H](Cc1ccc(Cl)cc1)C(=O)O; d2Nal = N[C@H](Cc1ccc2ccccc2c1)C(=O)O; dCit = NC(=O)NCCC[C@@H](N)C(=O)O; d3Pal = N[C@H](Cc1cccnc1)C(=O)O

Columns and labels:
clinical [1] = settings: human, in vivo, iv
clinical [2] = settings: human, in vivo, iv; remark: listed apart in the source
clinical [3] = settings: human, in vivo, iv, t1/2
clinical [4] = settings: human, in vivo, iv, CL
clinical [5] = settings: human, in vivo, iv, Vdss

Row | SMILES | fraction unbound (clinical [1]) | MRT (clinical [2]) [h] | half-life (clinical [3]) [h] | clearance (clinical [4]) [mL/min/kg] | Vd (clinical [5]) [L/kg]
1 | CCCC(=O)N1CCCN(c2nc(N)c3cc(OC)c(OC)cc3n2)CC1 [BUNAZOSIN] | 0.06 | 2.5 | 2 | 4.8 | 0.72
2 | Oc1ccc2c(c1)[C@@]13CCCC[C@@]1(O)[C@@H](C2)N(CC1CCC1)CC3 [BUTORPHANOL] | 0.17 | 5.3 | 4.8 | 41 | 12
3 | O=NN(CCCl)C(=O)NCCCl [CARMUSTINE] | 0.23 | 0.26 | 0.37 | 78 | 1.2
4 | NC(=O)OC[C@@H]1[C@H](NC(=O)/C(=N\OCC(=O)O)c2csc(N)n2)C(=O)N1S(=O)(=O)O [CARUMONAM] | 0.72 | 2 | 1.6 | 1.5 | 0.18
5 | Cn1nnnc1SCC1=C(C(=O)O)N2C(=O)[C@@H](NC(=O)[C@H](O)c3ccccc3)[C@H]2SC1 [CEFAMANDOLE] | 0.25 | 0.75 | 0.75 | 3.6 | 0.16
6 | CO[C@@]1(NC(=O)CSCC#N)C(=O)N2C(C(=O)O)=C(CSc3nnnn3C)CS[C@@H]21 [CEFMETAZOLE] | 0.15 | 1.5 | 1.5 | 1.5 | 0.13
7 | CO/N=C(\C(=O)N[C@@H]1C(=O)N2C(C(=O)O)=C(CSc3nc(C)c(CC(=O)O)s3)CS[C@H]12)c1csc(N)n1 [CEFODIZIME] | 0.18 | 1.5 | 4.2 | 0.61 | 0.054
8 | NCc1ccccc1CC(=O)N[C@@H]1C(=O)N2C(C(=O)O)=C(CSc3nnnn3CC(=O)O)CS[C@H]12 [CEFORANIDE] | 0.19 | 4.3 | 3 | 0.66 | 0.17
9 | CO/N=C(\C(=O)N[C@@H]1C(=O)N2C(C(=O)O)=C(COC(C)=O)CS[C@H]12)c1csc(N)n1 [CEFOTAXIME] | 0.6 | 1.2 | 1.2 | 2.7 | 0.19
10 | CO[C@@]1(NC(=O)Cc2cccs2)C(=O)N2C(C(=O)O)=C(COC(N)=O)CS[C@@H]21 [CEFOXITIN] | 0.73 | 0.79 | 0.81 | 3.6 | 0.17
11 | CO/N=C(\C(=O)N[C@@H]1C(=O)N2C(C(=O)[O-])=C(C[n+]3cccc4c3CCC4)CS[C@H]12)c1csc(N)n1 [CEFPIROME] | 0.9 | 2.1 | 1.7 | 1.9 | 0.24
12 | CO/N=C(\C(=O)N[C@@H]1C(=O)N2C(C(=O)O)=CCS[C@H]12)c1csc(N)n1 [CEFTIZOXIME] | 0.72 | 1.6 | 1.5 | 2.1 | 0.2
13 | Nc1nc(/C(=N/O)C(=O)N[C@@H]2C(=O)N3C(C(=O)O)=C(/C=C4\CCN([C@@H]5CCNC5)C4=O)CS[C@H]23)ns1 [CEFTOBIPROLE] | 0.62 | 3 | 3.3 | 1.5 | 0.27
14 | CO/N=C(\C(=O)N[C@@H]1C(=O)N2C(C(=O)O)=C(CSc3nc(=O)c(=O)[nH]n3C)CS[C@H]12)c1csc(N)n1 [CEFTRIAXONE] | 0.052 | 5.4 | 8.6 | 0.26 | 0.085
15 | CO/N=C(\C(=O)N[C@@H]1C(=O)N2C(C(=O)O)=C(COC(N)=O)CS[C@H]12)c1ccco1 [CEFUROXIME] | 0.12 | 1.1 | 1.1 | 2.2 | 0.15
16 | O=C(Cc1cccs1)N[C@@H]1C(=O)N2C(C(=O)[O-])=C(C[n+]3ccccc3)CS[C@H]12 [CEPHALORIDINE] | 0.8 | 2.3 | 1.5 | 3.3 | 0.46
17 | CC(=O)OCC1=C(C(=O)O)N2C(=O)[C@@H](NC(=O)Cc3cccs3)[C@H]2SC1 [CEPHALOTHIN] | 0.22 | 0.65 | 0.95 | 1.8 | 0.07
18 | CC(=O)OCC1=C(C(=O)O)N2C(=O)[C@@H](NC(=O)CSc3ccncc3)[C@H]2SC1 [CEPHAPIRIN] | 0.55 | 0.8 | 1.2 | 2.7 | 0.13
19 | CC(=O)N[C@H](Cc1ccc2ccccc2c1)C(=O)N[C@H](Cc1ccc(Cl)cc1)C(=O)N[C@H](Cc1cccnc1)C(=O)N[C@@H](CO)C(=O)N[C@@H](Cc1ccc(O)cc1)C(=O)N[C@H](CCCNC(N)=O)C(=O)N[C@@H](CC(C)C)C(=O)N[C@@H](CCCNC(=N)N)C(=O)N1CCC[C@H]1C(=O)N[C@H](C)C(N)=O [CETRORELIX] (Ac-[d2Nal][dPhe(4-Cl)][d3Pal]SY[dCit]LRP[dA]-NH2) | 0.14 | 5.4 | 12 | 1.2 | 0.39
20 | CC1(C)C[C@@H]1C(=O)N/C(=C\CCCCSC[C@H](N)C(=O)O)C(=O)O [CILASTATIN] | 0.6 | 1.1 | 0.86 | 2.3 | 0.15
21 | Nc1nc(Cl)nc2c1ncn2[C@H]1C[C@H](O)[C@@H](CO)O1 [CLADRIBINE] | 0.79 | 9.2 | 16 | 14 | 7.7
22 | Cc1ncsc1CCCl [CLOMETHIAZOLE] | 0.36 | 3.3 | 4.5 | 33 | 6.6
23 | CCOC(=O)[C@@H]1C2CCC(C[C@@H]1OC(=O)c1ccccc1)N2C (stereo not given in full) [COCAETHYLENE] | 0.64 | 2 | 1.5 | 13 | 1.6
24 | CN(C)/N=N/c1[nH]cnc1C(N)=O [DACARBAZINE] | 1 | 7.8 | 6.2 | 2.6 | 1.2
25 | CN[C@H]1C(=O)N[C@@H]2Cc3ccc(cc3)Oc3cc4cc(c3O[C@@H]3O[C@H](C(=O)O)[C@@H](O)[C@H](O)[C@H]3NC(=O)CCCCCCCCC(C)C)Oc3ccc(cc3Cl)[C@@H](O)[C@@H]3NC(=O)[C@H](NC(=O)[C@@H]4NC(=O)[C@@H](NC2=O)c2cc(cc(O)c2Cl)Oc2cc1ccc2O)c1ccc(O)c(c1)-c1c(O[C@H]2O[C@H](CO)[C@@H](O)[C@H](O)[C@@H]2O)cc(O)cc1[C@@H](C(=O)NCCCN(C)C)NC3=O [DALBAVANCIN] | 0.02 | 230 | 170 | 0.01 | 0.14
26 | CCN(CC)CCS(=O)(=O)[C@@H]1CCN2C(=O)c3coc(n3)CC(=O)C[C@H](O)/C=C(C)/C=C/CNC(=O)/C=C/[C@@H](C)[C@@H](C(C)C)OC(=O)[C@@H]12 [DALFOPRISTIN] | 0.82 | 0.41 | 0.74 | 16 | 0.39
27 | O=C1CN=C(c2ccccc2Cl)c2cc(Cl)ccc2N1 [DELORAZEPAM] | 0.051 | 220 | 200 | 0.17 | 2.2
28 | CN(C)[C@@H]1C(O)=C(C(N)=O)C(=O)[C@@]2(O)C(O)=C3C(=O)c4c(O)ccc(Cl)c4[C@@H](O)[C@H]3C[C@@H]12 [DEMECLOCYCLINE] | 0.59 | 17 | 12 | 1.1 | 1.3
29 | CCN[C@@H](C)Cc1cccc(C(F)(F)F)c1 [DEXFENFLURAMINE] | 0.66 | 18 | 14 | 11 | 11
30 | Cc1cccc([C@H](C)c2cnc[nH]2)c1C [DEXMEDETOMIDINE] | 0.06 | 2.5 | 2.2 | 11 | 1.6
